Test results from US20100113613A1, “CYCLOHEXANE POLYALCOHOL FORMULATION FOR TREATMENT OF DISORDERS OF PROTEIN AGGREGATION” (WARATAH PHARMACEUTICALS, priority 2006, published 2010).
Read-outs that look alike come from different tables or passages of the source.

Columns and labels:
in vivo = conditions: dog, po
Method: Plasma PK of a scyllo-cyclohexanhexyl in dogs was assessed after 14 days oral dosing of 15, 50 and 150 mg/kg, administered twice daily. As on Day 1 of this study Cmax and AUC values increased proportionally with dose level of scyllo-cyclohexanehexyl. However, dose-normalised exposures appeared to decrease with dose. This contrasts with positive trend observed after acute exposure. […] As for single doses, the scyllo-cyclohexanehexyl was absorbed rapidly, with tmax observed between 1.1 and 1.8 hours post-dose. […] Estimates of MRT were consistent. The Vdss and Cl/F values were similar for all dose levels.

[1] = CSF and plasma levels at end of 14 day repeat dose study in dogs; type: in vivo, dog; conditions: dog, oral, after 14 days dosing; for concentration at 24 h: CSF, read-out: CSF level at 24 h; for concentration at 12 h: plasma, read-out: Plasma level at 12 h
Method: CSF was also collected from dogs at the end of the 14 day repeat study upon necropsy (approximately 24 hours after the final dose was administered). Levels of the scyllo-cyclohexanehexyl in CSF increased with dose and followed the profile observed in plasma.

[2] = Brain penetrance: plasma and CSF pharmacokinetics after single oral doses in dogs; type: in vivo, dog; conditions: dog
Text: CSF bathes the central nervous system and sits on the inside of the blood brain barrier. Although a centrally-acting drug will still need to penetrate brain tissue to exert an effect, quantification of drug in CSF may provide a gross estimate of brain-penetrance.

[3] = Single oral and intravenous dose pharmacokinetics, dose range-finding study in beagle dogs; type: in vivo, beagle dog; conditions: for Tmax: po; for Vd: read-out: VdSS
Method: PK of single oral doses of the scyllo-cyclohexanhexyl was also investigated in a preliminary fashion in a dose range-finding study in 5 beagle dogs. […] The Cmax and AUC values increased proportionally with dose, consistent with observations in the larger study. Estimates of t½ ranged from 2 to 5 hours. Neither dose nor route of administration had any clear effect on t½, MRT, Cl/F or Vdss.

[4] = CSF, single oral dose 240 mg/kg
[5] = PLASMA LEVELS, single oral dose 20 mg/kg
[6] = PLASMA LEVELS, single oral dose 80 mg/kg
[7] = PLASMA LEVELS, single oral dose 240 mg/kg
[8] = beagle, dog, plasma, dogs, single intravenous dose 80 mg/kg
[9] = beagle, dog, plasma, dogs, single intravenous dose 240 mg/kg
[10] = beagle, dog, plasma, dogs, single oral dose 20 mg/kg
[11] = beagle, dog, plasma, dogs, single oral dose 80 mg/kg
[12] = beagle, dog, plasma, dogs, single oral dose 240 mg/kg
[13] = dogs, single intravenous dose 80 mg/kg
[14] = dogs, single intravenous dose 240 mg/kg

## OC1C(O)C(O)C(O)C(O)C1O (centres unmarked) [AZD-103, scyllo-inositol]
In vivo; 15 mg/kg
  Tmax: 1.7 ± 0.5 h
  VdSS: 0.3017 ± 0.0419 L/kg
  half-life: 4.7 ± 2 h
In vivo; 50 mg/kg
  AUC(0-inf): 262 ± 52.4 µg·h/mL
  AUC(0-t): 232 ± 50.2 µg·h/mL
  CL/F: 0.86 mL/min/kg
  Cmax: 59400 ± 13000 ng/mL
  MRT: 5.3 ± 1.2 h
  Tmax: 1.1 ± 0.5 h
  VdSS: 0.2726 ± 0.1217 L/kg
  half-life: 3.8 ± 1.2 h
In vivo; 150 mg/kg
  AUC(0-inf): 557 ± 133 µg·h/mL
  AUC(0-t): 523 ± 123 µg·h/mL
  CL/F: 1.2 mL/min/kg
  Cmax: 121000 ± 26700 ng/mL
  MRT: 4.6 ± 0.4 h
  Tmax: 1.8 ± 0.4 h
  VdSS: 0.3321 ± 0.0881 L/kg
  half-life: 2.9 ± 0.6 h
[1]; Dose 30 mg/kg
  concentration at 24 h: 4000 ng/mL
  concentration at 12 h: 3600 ng/mL
[1]; Dose 100 mg/kg
  concentration at 24 h: 7500 ng/mL
  concentration at 12 h: 5800 ng/mL
[1]; Dose 300 mg/kg
  concentration at 24 h: 10900 ng/mL
  concentration at 12 h: 8200 ng/mL
[2]; CSF, single oral dose 20 mg/kg
  AUC(0-inf): 38 ± 22.8 µg·h/mL
  AUC(0-t): 20.6 ± 6.6 µg·h/mL
  Cmax: 2300 ± 1400 ng/mL
  Tmax: 4 ± 1.7 h
[2]; CSF, single oral dose 80 mg/kg
  AUC(0-inf): 103 ± 13.1 µg·h/mL
  AUC(0-t): 98 ± 13.2 µg·h/mL
  Cmax: 18700 ± 1000 ng/mL
  Tmax: 2.8 ± 1.5 h
[2]; [4]
  AUC(0-inf): 401 ± 204 µg·h/mL
  AUC(0-t): 384 ± 204 µg·h/mL
  Cmax: 67400 ± 28600 ng/mL
  Tmax: 3 ± 1.7 h
[2]; [5]
  AUC(0-inf): 52.7 ± 17.9 µg·h/mL
  AUC(0-t): 42.6 ± 9.6 µg·h/mL
  Cmax: 6100 ± 3600 ng/mL
  Tmax: 2.8 ± 2.2 h
[2]; [6]
  AUC(0-inf): 255 ± 58.6 µg·h/mL
  AUC(0-t): 250 ± 59.3 µg·h/mL
  Tmax: 2.3 ± 1.3 h
[2]; [7]
  AUC(0-inf): 528 ± 74.6 µg·h/mL
  AUC(0-t): 514.5 ± 0.3 µg·h/mL
  Cmax: 101000 ± 17800 ng/mL
  Tmax: 2.3 ± 1.5 h
[3]; beagle, dog, plasma, 20 mg/kg, dogs, single oral dose 20 mg/kg
  Tmax: 1.5 ± 0.6 h
[3]; beagle, dog, plasma, 80 mg/kg, dogs, single oral dose 80 mg/kg
  Tmax: 2 ± 1.2 h
[3]; beagle, dog, plasma, 240 mg/kg, beagle dogs, following an oral dose (20, 80 and 240 mg/kg)
  Tmax: 1.5 to 2 h
[3]; beagle, dog, plasma, 240 mg/kg, dogs, single oral dose 240 mg/kg
  Tmax: 2 ± 1.4 h
[3]; beagle, dog, plasma, dogs, 80 mg/kg dose level, oral vs i.v.
  bioavailability: > 90%
[3]; [8]
  AUC(0-inf): 173 ± 9 µg·h/mL
  AUC(0-t): 167 ± 7 µg·h/mL
  MRT: 4.6 ± 1.2 h
  Vd: 2.1 L/kg
[3]; beagle, dog, plasma, dogs, single intravenous dose 80 mg/kg, read-out: t1/2 (converted)
  half-life: 3.3 ± 0.3 h
[3]; [9]
  AUC(0-inf): 248 ± 25 µg·h/mL
  AUC(0-t): 244 ± 24 µg·h/mL
  MRT: 3.3 ± 0.5 h
  Vd: 3.22 L/kg
[3]; beagle, dog, plasma, dogs, single intravenous dose 240 mg/kg, read-out: t1/2 (converted)
  half-life: 2.3 ± 0.2 h
[3]; [10]
  AUC(0-inf): 51.7 ± 15.7 µg·h/mL
  AUC(0-t): 42.1 ± 8.4 µg·h/mL
  CL/F: 6.97 mL/min/kg
  Cmax: 5900 ± 3100 ng/mL
  MRT: 10.1 ± 5.9 h
[3]; beagle, dog, plasma, dogs, single oral dose 20 mg/kg, read-out: t1/2 (converted)
  half-life: 5 ± 3.9 h
[3]; [11]
  AUC(0-inf): 246 ± 53 µg·h/mL
  AUC(0-t): 243 ± 54 µg·h/mL
  CL/F: 5.63 mL/min/kg
  Cmax: 69000 ± 23500 ng/mL
  MRT: 4.1 ± 0.8 h
[3]; beagle, dog, plasma, dogs, single oral dose 80 mg/kg, read-out: t1/2 (converted)
  half-life: 2 ± 0.3 h
[3]; [12]
  AUC(0-inf): 489 ± 99 µg·h/mL
  AUC(0-t): 477 ± 94 µg·h/mL
  CL/F: 8.45 mL/min/kg
  Cmax: 89500 ± 27800 ng/mL
  MRT: 5.2 ± 0.2 h
[3]; beagle, dog, plasma, dogs, single oral dose 240 mg/kg, read-out: t1/2 (converted)
  half-life: 2 ± 0.4 h
[3]; dog, plasma, other: oral and intravenous (range over both routes), beagle dogs, 20, 80 and 240 mg/kg p.o., 80 and 240 mg/kg i.v., read-out: t½
  half-life: 2 to 5 h
[3]; [13]
  Cp0: 87.2 ± 13.2 µg/mL
  kel: 0.21 ± 0.02 h⁻¹
[3]; [14]
  Cp0: 127.9 ± 19.1 µg/mL
  kel: 0.30 ± 0.02 h⁻¹
[3]; dogs, single oral dose 20 mg/kg
  kel: 0.2 ± 0.2 h⁻¹
[3]; dogs, single oral dose 80 mg/kg
  kel: 0.4 ± 0.1 h⁻¹
[3]; dogs, single oral dose 240 mg/kg
  kel: 0.4 ± 0.1 h⁻¹
